The results in this text go back to ChEMBL document CHEMBL5126546, “Advancements in the development of multi-target directed ligands for the treatment of Alzheimer's disease” (Bioorg Med Chem, 2022).

The target of data set [1] is T1, Acetylcholinesterase (Homo sapiens, UniProt P22303). Kind of data set: Inhibition of recombinant human AChE using acetylthiocholine as substrate by Ellman's method.
Data set [2] addresses T1, Acetylcholinesterase. Kind of data set: Inhibition of human AChE using acetylthiocholine iodide as substrate by Ellman's method. A general note: Ellman's reagent forms a yellow product with free thiols.
Data set [3] addresses T2, Amyloid-beta precursor protein (Homo sapiens, UniProt P05067). Kind of data set: Inhibition of self-induced amyloid beta (1 to 42) (unknown origin) aggregation by Thioflavin T based fluorometric assay.
In data set [4] the target is 72 kDa type IV collagenase (Homo sapiens, UniProt P08253). Kind of data set: Inhibition of MMP-2 (unknown origin) by Fluorometric analysis.
For data set [5], the species on record is Homo sapiens. Kind of data set: Selectivity index, ratio of IC50 for inhibition of human AChE to IC50 for inhibition of human BuChE.
Data set [6] deals with Fatty-acid amide hydrolase 1 (Homo sapiens, UniProt O00519). Kind of data set: Inhibition of FAAH (unknown origin) using 7-amino-4-methylcoumarin-arachidonamide as substrate preincubated for 5 mins followed by substrate addition and measured after 30 mins by fluorescence based assay.
Data set [7] addresses T3, Acetylcholinesterase (Electrophorus electricus, UniProt O42275). Kind of data set: Inhibition of Electrophorus electricus AchE using acetylthiocholine iodide as substrate preincubated for 15 mins followed by substrate addition and measured for 6 mins by DTNB reagent based Ellman's method.
Data set [8] concerns the target T4, Cholinesterase (Homo sapiens, UniProt P06276). Kind of data set: Inhibition of BuChE (unknown origin) incubated for 15 mins by Ellman's method.
Data set [9] is described as follows: Antioxidant activity of compound assessed as trolox equivalent of ORAC radical scavenging activity by ORAC-FL assay. The class given is functional.
For data set [10], the target named is Amine oxidase [flavin-containing] B (Homo sapiens, UniProt P27338). Kind of data set: Inhibition of recombinant human MAO-B assessed as amount of 4-hydroxyquinoline using kynuramine as a substrate incubated for 30 mins by fluorescence spectrophotometry.
For data set [11], the target named is Amine oxidase [flavin-containing] A (Homo sapiens, UniProt P21397). Kind of data set: Inhibition of recombinant human MAO-A assessed as amount of 4-hydroxyquinoline using kynuramine as a substrate incubated for 30 mins by fluorescence spectrophotometry.
Data set [12] deals with T3, Acetylcholinesterase. Kind of data set: Inhibition of Electrophorus electricus AchE incubated for 15 mins by Ellman's method.
In data set [13] the target is T2, Amyloid-beta precursor protein. Kind of data set: Inhibition of amyloid beta (1 to 42) (unknown origin) self aggregation at 100 uM and measured after 24 hrs by Thioflavin T based fluorometric assay.
Data set [14] shares this target. Kind of data set: Inhibition of self induced amyloid beta (1 to 42) (unknown origin) aggregation incubated for 24 hrs by Thioflavin T based fluorometric assay.
Data set [15] concerns the target Glycogen synthase kinase-3 beta (Homo sapiens) (UniProt P49841). Kind of data set: Inhibition of GSK-3beta (unknown origin) at 10 uM by Kinase-GLO reagent based assay. On the technique in general: Kinase-Glo measures the ATP left after a reaction by luminescence.
The target of data set [16] is T1, Acetylcholinesterase. Kind of data set: Inhibition of recombinant human AChE using acetylthiocholine iodide as substrate by Ellman's method.
Data set [17] concerns the target T3, Acetylcholinesterase. Kind of data set: Inhibition of Electrophorus electricus AChE using acetylthiocholine iodide as substrate preincubated for 5 mins followed by substrate addition and measured for 5 mins by spectrophotometric based Ellman's method.
The target in data set [18] is T2, Amyloid-beta precursor protein. Kind of data set: Inhibition of amyloid beta (1 to 42) (unknown origin) self aggregation incubated for 24 hrs by Thioflavin T based fluorometric assay.
For data set [19], the target named is T5, Beta-secretase 1 (Homo sapiens, UniProt P56817). Kind of data set: Inhibition of human BACE-1 using Rh-EVNLDAEFK-quencher as peptide substrate incubated for 1 hr in dark by FRET assay.
In data set [20] the target is T4, Cholinesterase. Kind of data set: Inhibition of human BuChE using butyrylthiocholine iodide as substrate at 10 uM preincubated for 6 mins followed by substrate addition and measured for 12 mins by DTNB reagent based Ellman's method. Particulars: time 18.0 min.
Data set [21] concerns the target T1, Acetylcholinesterase. Kind of data set: Inhibition of human AChE using acetylthiocholine iodide as substrate preincubated for 6 mins followed by substrate addition and measured for 12 mins by DTNB reagent based Ellman's method.
The target of data set [22] is Microtubule-associated protein tau (Homo sapiens) (UniProt P10636). Kind of data set: Inhibition of tau aggregation (unknown origin) at 20 uM for 72 hrs by thioflavin S based fluorescence analysis.
A short description of data set [23]: Permeability of compound by PAMPA-BBB assay. It is filed as ADME. As to conditions: read-out: permeability. For orientation: The PAMPA barrier holds no transporters, so it reflects passive diffusion.
In data set [24] the target is Glutamate [NMDA] receptor. Kind of data set: Inhibition of NMDA receptor (unknown origin). The class given is protein-complex assay, Homo sapiens.
Data set [25] has as its target Glutamate receptor ionotropic AMPA (Homo sapiens, UniProt P42261+P42262+P42263+P48058). Kind of data set: Inhibition of AMPA receptor (unknown origin). It is filed as protein-complex assay.
Data set [26] concerns the target T6, Gamma-secretase (Homo sapiens) (UniProt Q96BI3+Q9NZ42+Q8WW43+P49768+Q92542+P49810). Kind of data set: Inhibition of gamma secretase in human H4 cells expressing human wild type APP assessed as reduction in amyloid beta 1-42 level at 100 uM for 12 hrs by ELISA. It is filed as cell-based.
The target in data set [27] is T6, Gamma-secretase (Homo sapiens). Kind of data set: Inhibition of gamma secretase in human H4 cells expressing human wild type APP assessed as reduction in amyloid beta 1-40 level at 100 uM for 12 hrs by ELISA. The class given is cell-based.
The target of data set [28] is Cholinesterase (Equus caballus, UniProt P81908). Kind of data set: Inhibition of equine serum BuChE using butyrylthiocholine iodide as substrate preincubated for 5 mins followed by substrate addition and measured after 5 mins by Ellman's method.
Data set [29] deals with T3, Acetylcholinesterase. Kind of data set: Inhibition of Electrophorus electricus AchE using acetylthiocholine iodide as substrate preincubated for 5 mins followed by substrate addition and measured after 5 mins by Ellman's method.
For data set [30], the target named is T2, Amyloid-beta precursor protein. Kind of data set: Inhibition of Cu2+ induced amyloid beta (1 to 42) (unknown origin) aggregation at 25 uM and measured after 24 hrs by Thioflavin T based fluorometric assay.
A short description of data set [31]: Selectivity index, ratio of IC50 for inhibition of equine serum BuChE to IC50 for inhibition of electric eel AChE.
Data set [32] deals with T5, Beta-secretase 1. Kind of data set: Inhibition of recombinant human BACE-1 using MCA-SEVNLDAEFR-Ednp-KRR-NH2.3TFA as substrate incubated for 2 hrs by Varioskan-flash multimode plate reader analysis.
For data set [33], the system named is Rattus norvegicus. Kind of data set: Antiinflammatory activity in formalin induced Sprague-Dawley rat chronic inflammation model assessed as inhibition of paw edema at 50 mg/kg, po for 1 hr followed by formalin injection for 5 days relative to control. The class given is functional. Particulars: time 5 day. On the set-up: scale not given: the % may be the effect or the level left.

In data set [34] the test system is Rattus norvegicus. Kind of data set: Antiinflammatory activity in carrageenan induced Sprague-Dawley rat acute inflammation model assessed as inhibition of paw edema at 50 mg/kg, po for 1 hr followed by carrageenan injection snd measured after 3 hrs relative to control. As to conditions: time 4 hrs. On the set-up: scale not given: the % may be the effect or the level left. It is filed as functional.

T1 sequence (P22303 whole entry): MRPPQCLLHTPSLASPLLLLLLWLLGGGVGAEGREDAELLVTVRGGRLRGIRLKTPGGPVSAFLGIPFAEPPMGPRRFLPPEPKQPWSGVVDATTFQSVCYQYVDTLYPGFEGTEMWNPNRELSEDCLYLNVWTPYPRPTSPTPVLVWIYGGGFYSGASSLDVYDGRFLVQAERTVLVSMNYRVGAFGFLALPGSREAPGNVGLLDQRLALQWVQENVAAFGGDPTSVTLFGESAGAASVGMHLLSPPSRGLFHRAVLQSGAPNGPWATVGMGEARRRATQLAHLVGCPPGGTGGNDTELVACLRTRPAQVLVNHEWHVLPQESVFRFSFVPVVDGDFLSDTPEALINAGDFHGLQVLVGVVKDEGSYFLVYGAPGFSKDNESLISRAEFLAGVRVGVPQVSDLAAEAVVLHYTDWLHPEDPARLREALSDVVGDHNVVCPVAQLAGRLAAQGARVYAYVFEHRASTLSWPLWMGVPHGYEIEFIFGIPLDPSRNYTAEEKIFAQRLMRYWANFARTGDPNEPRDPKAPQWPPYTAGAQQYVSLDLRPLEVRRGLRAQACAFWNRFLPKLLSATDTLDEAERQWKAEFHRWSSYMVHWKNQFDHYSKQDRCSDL
T3 sequence (O42275 whole entry): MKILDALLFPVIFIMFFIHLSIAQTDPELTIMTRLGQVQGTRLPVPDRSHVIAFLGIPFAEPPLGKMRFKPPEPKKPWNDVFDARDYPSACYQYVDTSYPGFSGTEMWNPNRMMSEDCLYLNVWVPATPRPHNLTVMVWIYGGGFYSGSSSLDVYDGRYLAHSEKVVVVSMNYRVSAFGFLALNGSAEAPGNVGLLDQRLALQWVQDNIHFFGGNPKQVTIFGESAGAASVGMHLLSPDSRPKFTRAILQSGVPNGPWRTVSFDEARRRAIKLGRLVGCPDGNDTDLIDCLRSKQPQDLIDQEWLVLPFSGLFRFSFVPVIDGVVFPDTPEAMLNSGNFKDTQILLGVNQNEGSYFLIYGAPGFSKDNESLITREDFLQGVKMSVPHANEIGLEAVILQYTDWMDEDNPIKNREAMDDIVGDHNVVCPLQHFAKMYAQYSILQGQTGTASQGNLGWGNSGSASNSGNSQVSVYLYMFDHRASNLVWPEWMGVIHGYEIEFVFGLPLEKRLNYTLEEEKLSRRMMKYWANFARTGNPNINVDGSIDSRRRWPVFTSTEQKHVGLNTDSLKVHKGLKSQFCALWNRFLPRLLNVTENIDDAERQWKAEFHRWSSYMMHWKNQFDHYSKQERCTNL
T2 sequence (P05067 whole entry): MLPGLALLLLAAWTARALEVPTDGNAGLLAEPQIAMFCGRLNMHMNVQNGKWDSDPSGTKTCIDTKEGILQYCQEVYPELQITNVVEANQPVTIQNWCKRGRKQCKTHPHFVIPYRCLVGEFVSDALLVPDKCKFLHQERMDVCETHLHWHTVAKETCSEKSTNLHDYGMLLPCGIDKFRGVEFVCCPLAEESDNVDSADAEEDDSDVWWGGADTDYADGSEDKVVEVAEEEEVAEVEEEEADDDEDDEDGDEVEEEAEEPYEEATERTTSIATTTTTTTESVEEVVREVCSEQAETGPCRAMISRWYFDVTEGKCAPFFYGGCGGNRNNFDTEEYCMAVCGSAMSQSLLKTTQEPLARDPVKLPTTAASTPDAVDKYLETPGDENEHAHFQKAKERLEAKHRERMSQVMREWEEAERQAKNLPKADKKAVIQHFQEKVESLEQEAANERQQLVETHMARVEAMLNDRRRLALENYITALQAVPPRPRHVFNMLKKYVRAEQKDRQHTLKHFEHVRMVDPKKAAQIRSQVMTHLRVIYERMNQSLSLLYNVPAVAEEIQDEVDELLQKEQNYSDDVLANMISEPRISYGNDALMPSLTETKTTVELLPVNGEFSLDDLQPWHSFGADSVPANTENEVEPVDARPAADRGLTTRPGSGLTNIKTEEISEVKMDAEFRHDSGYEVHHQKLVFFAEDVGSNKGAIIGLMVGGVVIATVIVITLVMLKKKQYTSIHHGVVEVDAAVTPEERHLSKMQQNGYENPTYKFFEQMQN
T4 sequence (P06276 whole entry): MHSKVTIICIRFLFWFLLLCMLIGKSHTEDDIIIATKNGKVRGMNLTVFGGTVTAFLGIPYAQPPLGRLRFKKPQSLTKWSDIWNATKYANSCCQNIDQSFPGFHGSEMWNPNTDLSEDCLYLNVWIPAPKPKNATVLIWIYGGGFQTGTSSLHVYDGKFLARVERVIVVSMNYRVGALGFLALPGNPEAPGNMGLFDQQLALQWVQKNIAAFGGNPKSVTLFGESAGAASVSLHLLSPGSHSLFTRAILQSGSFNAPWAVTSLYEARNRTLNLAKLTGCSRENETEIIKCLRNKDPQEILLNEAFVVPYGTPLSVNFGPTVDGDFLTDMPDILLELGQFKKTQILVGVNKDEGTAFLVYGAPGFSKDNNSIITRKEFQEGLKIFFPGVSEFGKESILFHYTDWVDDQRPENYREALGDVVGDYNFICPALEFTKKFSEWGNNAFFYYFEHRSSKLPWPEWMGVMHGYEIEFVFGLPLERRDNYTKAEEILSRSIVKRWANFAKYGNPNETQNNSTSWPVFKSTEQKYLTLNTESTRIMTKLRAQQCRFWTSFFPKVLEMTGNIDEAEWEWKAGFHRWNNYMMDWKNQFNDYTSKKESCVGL
T5 sequence (P56817 whole entry): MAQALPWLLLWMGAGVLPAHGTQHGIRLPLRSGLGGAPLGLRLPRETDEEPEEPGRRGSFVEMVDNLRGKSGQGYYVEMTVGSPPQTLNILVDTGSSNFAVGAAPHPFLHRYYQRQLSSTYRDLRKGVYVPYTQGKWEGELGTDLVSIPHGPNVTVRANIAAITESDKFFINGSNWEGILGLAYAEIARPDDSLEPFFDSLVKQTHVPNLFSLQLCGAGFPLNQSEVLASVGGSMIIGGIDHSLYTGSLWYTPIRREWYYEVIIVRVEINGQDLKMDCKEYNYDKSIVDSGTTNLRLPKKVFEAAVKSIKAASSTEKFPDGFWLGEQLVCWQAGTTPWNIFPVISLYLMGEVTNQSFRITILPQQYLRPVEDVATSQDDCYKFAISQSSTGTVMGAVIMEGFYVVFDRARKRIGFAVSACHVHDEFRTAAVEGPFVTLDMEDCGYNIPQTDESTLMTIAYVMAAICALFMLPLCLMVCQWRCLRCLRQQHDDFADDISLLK
Sequence of Microtubule-associated protein tau (Homo sapiens) (P10636 whole entry, the tested form may be a part): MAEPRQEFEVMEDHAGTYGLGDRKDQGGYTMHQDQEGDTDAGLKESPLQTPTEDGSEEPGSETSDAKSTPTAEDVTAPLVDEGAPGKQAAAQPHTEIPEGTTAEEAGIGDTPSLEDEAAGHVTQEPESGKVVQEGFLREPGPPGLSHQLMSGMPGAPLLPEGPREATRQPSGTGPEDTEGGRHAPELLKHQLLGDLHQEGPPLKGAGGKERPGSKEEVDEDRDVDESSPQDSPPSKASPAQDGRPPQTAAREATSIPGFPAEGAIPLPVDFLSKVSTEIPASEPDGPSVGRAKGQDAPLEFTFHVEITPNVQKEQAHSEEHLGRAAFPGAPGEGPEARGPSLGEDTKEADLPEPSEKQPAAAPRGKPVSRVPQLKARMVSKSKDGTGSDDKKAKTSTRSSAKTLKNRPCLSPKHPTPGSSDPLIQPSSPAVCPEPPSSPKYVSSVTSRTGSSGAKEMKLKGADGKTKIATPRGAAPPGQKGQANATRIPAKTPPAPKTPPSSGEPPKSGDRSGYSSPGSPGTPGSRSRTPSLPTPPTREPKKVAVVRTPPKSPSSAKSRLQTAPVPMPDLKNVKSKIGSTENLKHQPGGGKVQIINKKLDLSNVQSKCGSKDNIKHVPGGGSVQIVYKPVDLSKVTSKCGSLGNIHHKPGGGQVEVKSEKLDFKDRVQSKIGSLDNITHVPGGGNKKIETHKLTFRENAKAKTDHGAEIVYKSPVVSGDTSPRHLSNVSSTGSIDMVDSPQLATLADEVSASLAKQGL
Sequence of Cholinesterase (Equus caballus, UniProt P81908) (P81908 whole entry): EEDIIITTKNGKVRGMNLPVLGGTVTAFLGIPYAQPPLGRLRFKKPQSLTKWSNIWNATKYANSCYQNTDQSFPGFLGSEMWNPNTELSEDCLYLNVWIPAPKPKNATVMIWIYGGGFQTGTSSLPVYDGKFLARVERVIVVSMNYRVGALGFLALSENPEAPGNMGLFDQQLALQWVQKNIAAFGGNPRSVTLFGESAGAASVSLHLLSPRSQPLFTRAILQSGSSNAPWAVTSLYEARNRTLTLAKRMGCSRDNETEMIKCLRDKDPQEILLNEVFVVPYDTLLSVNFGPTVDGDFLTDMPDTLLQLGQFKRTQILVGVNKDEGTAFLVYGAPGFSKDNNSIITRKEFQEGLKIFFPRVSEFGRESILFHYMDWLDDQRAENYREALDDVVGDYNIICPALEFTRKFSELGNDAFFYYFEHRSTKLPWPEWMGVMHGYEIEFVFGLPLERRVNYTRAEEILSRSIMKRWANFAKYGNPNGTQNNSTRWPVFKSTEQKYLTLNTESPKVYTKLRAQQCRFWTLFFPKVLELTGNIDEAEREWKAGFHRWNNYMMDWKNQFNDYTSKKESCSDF
Sequence of Amine oxidase [flavin-containing] A (P21397 whole entry): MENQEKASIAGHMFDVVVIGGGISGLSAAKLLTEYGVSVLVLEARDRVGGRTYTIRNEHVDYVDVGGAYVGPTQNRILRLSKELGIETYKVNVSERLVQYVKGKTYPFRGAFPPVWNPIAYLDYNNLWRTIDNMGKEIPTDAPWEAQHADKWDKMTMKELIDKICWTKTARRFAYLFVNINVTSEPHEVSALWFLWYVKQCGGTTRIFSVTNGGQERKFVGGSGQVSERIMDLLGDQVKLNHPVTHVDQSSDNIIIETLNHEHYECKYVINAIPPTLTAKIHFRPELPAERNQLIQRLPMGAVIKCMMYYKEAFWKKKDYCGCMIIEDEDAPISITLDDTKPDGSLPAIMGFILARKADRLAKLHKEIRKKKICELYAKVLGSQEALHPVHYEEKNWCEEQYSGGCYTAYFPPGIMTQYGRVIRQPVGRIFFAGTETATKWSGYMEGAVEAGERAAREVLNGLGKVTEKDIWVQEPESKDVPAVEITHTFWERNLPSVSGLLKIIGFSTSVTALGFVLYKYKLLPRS

Usually IC50 stands for the point on the concentration scale where inhibition reaches its midpoint. For `Clc1ccc2c(NCCCNCC34CC5CC(CC(C5)C3)C4)ccnc2c1`, the 50% inhibitory concentration (IC50) in [1] is 0.5 µM.
On to `O=c1cc(/N=N/N=P(CCP(=N/N=N/c2cc(=O)oc3ccccc23)(c2ccccc2)c2ccccc2)(c2ccccc2)c2ccccc2)c2ccccc2o1`, for which the IC50 in [2] was determined as 0.035 µM; in [3], 338 µM; in data set [4] it was 441 µM. Further, the Ratio IC50 in [5] was determined as 3.81.
For the compound `CCCCCCCNC(=O)Oc1cccc(CN(C)CCCCCOc2ccc3[nH]c(=O)ccc3c2)c1`, the results for the IC50 in [6] and in data set [7] were 0.83 µM and 0.39 µM, respectively.
For the compound `CCN(CCCCOc1ccc(/C=C/C(=O)N2CCc3ccccc3C2)cc1OC)Cc1ccccc1`, the IC50 in data set [8] came to 8.9 µM; in data set [10], 8.6 µM; in data set [11], 6.3 µM; in [12], 12.1 µM. In addition, the Activity in data set [9] was 0.53 equiv.
One may read the inhibition as the change of the read-out against control, counted positive when it falls. Turning to `CCOC(=O)C(Cc1cn(-c2ccccc2)nn1)(Cc1cn(-c2ccccc2)nn1)NC(C)=O`, the inhibition in data set [13] is 96.9%. The IC50 in data set [14] came out at 8.06 µM.
For the compound `CO[C@@H]1C=C[C@@]23c4cc5c(cc4CN(C[C@@H]2OC(=O)c2ccc([N+](=O)[O-])cc2)C3C1)OCO5` (some centres undefined), the inhibition in [15] came out at 27%. The IC50 in data set [16] came out at 14.7 µM.
Turning to `O=c1c2ccc(OCCN3CCCC3)cc2oc2cc(OCCN3CCCC3)cc(O)c12`, the IC50 in [17] turned out to be 0.12 µM.
In the case of `O=C(CCN1CCN(Cc2ccccc2)CC1)Nc1ccc2nc3n(c(=O)c2c1)CCC3`, the IC50 in data set [18] stood at 9.26 µM; in data set [19], 0.129 µM; in data set [21], 3.29 µM. In addition, in [20], the inhibition was 45.3%.
The compound `CC1=C[C@H]2c3c(O)cc(-c4cc5ccc(O)cc5o4)cc3O[C@@]3(c4ccc(O)c5c4OC(C)(C)C=C5)Oc4cc(O)ccc4[C@H](C1)[C@@H]23` returned an inhibition in data set [22] of 63.3%. The Papp in [23] was 8.7 ×10⁻⁶ cm/s.
On to `NCCCCCCNC1(c2ccccc2)CCCCC1`, for which the IC50 is 0.24 µM in data set [24] and 1.7 µM in data set [25].
Take `O=S(=O)(NC12CC3CC(CC(C3)C1)C2)C1CCCS1` (centres undefined): the figures for the inhibition in data set [26] and in data set [27] were 88% and 26%, respectively.
Turning to `CCCN1CCN(c2ncc(CCN(C)CCCc3ccccc3)s2)CC1`, the IC50 in data set [28] was found to be 14.6 µM; in data set [29], 14 µM.
Compound `CCN(CC)Cc1ccc(/C=C/C(=O)c2ccc(OC)c(OC)c2)cc1O` gave an inhibition in data set [30] of 20.2%.
On to `Cc1nc(C)c(C(=O)OCCCOC(=O)c2ccccn2)nc1C`, for which the Ratio IC50 in data set [31] was 1.32e+07.
Take `Cc1cc2nc(-c3cnc(N)s3)c(-c3cnc(N)s3)nc2cc1C`: the half-inhibitory concentration (IC50) in [32] amounted to 3 µM. Besides, the Activity in data set [33] came to 55%; in [34] it was 69%.
